Patent US7897568B2, “Compositions for treatment of cancer” (priority 2006, dated 2011)
Where a SMILES comes first, the peptide text is derived from it. Where no end group is shown, it is not given here.

Legend:
GST-SNCG [1] = biological target: T1, GST-SNCG (Homo sapiens, UniProt O76070); assay: Surface plasmon resonance, immobilized ANK peptide with GST-SNCG analyte; assay type: binding; settings: global fit, two-phase reaction (conformation change) model, 25° C.
T1 construct: The SNCG coding region was amplified from the human cDNA clone; made in house; host or cells: Escherichia coli BL21 (DE3)
Procedure: Kinetics of the SNCG-ANK interaction were determined. […] Sensograms were deconvoluted globally, using a simultaneous fit for both association (ka, M^−1s^−1) and dissociation (kd, s^−1).
The binding interaction between the ANK peptide and GST-SNCG was examined in real time using a BIACORE 3000 biosensor system (Biacore Inc., NJ). Because of the relatively large amount required in this experiment, GST-SNCG, which expresses at least 2 times better than SNCG, was used. […] The changes in the refractive index at the sensor chip surface with respect to time are scaled in resonance units (RU). For proteins, every 1000 RU corresponds to a surface mass change of ˜1 ng/mm^2. All experiments were performed at 25° C. using research grade carboxymethylated dextran matrix (CM5) sensor chips (Biacore Inc.). […] Prior to all analyses the GST-SNCG and ANK peptide preparations were dialyzed against the running buffer to minimize bulk effects. […]
In all cases the analyte binding measurements were performed using running buffer 2 (running buffer 1 plus 0.1% P20 surfactant). […] Data was analyzed using BIAevaluation 3.1 software (Biacore Inc.). The data was analyzed globally, using a simultaneous fit for both association (ka, M^−1s^−1) and dissociation (kd, s^−1). The KD (M) value was calculated as kd/ka.

GST-SNCG [2] = biological target: T1, GST-SNCG; assay: Isothermal titration calorimetry of ANK peptide into GST-SNCG; settings: ITC, first binding site
Procedure: The heat of dilution was measured by titrating ANK peptide in buffer alone. This was generally small and subtracted from each binding titration curve.
Titration calorimetry measurements were performed with a VP-ITC calorimeter (Microcal, Northampton, Mass.). The protein solution for ITC was dialyzed extensively overnight against 10 mM phosphate buffer, pH 7.0. The peptide solution was prepared by diluting with the buffer used for the protein dialysis. Injections (6 μl×50) of peptide (400 μM) were done by means of a rotating stirrer-syringe to the reaction cell, containing 1.43 ml of the 50 μM protein solution. The heat of dilution was determined to be negligible in separate titrations of the ligand into the buffer solution. Calorimetric data analysis was carried out with ORIGIN 5.0 software (MicroCal). Binding parameters such as the number of binding sites, the binding constant, and the binding enthalpy of bound ligand were determined by fitting the experimental binding isotherms.

SNCG [3] = biological target: T2, SNCG (Homo sapiens, UniProt O76070); assay: Co-localization of EGFP-ANK with SNCG by confocal microscopy; assay type: cell-based; design: expressed in transfected cells; host or cells: MCF7-SNCG (MCF7 stably expressing SNCG); settings: green fluorescent signals in transfected cells
From the text: FIGS. 5A through 5D show co-localization, co-immunoprecipitation (co-IP) and GST pull down experiments, using an enhance green fluorescent protein (EGFP)-ANK fusion protein, which confirm that SNCG associates with the ANK peptide in vivo. FIG. 5A is a western blot depicting detection of EGFP-ANK expression in COS7 cells. Lanes 2 and 3 were samples transfected with different clones, cl-4 and cl-8, respectively, of pEGFP-ANK plasmid. In FIG. 5B, MCF7-SNCG cells were transfected with pEGFP-ANK, fixed on a cover slip, permeabilized and probed with anti-SNCG and anti-GFP antibodies to observe co-localization. Fluorescent cells were visualized using an ×100 objective (oil) on an inverted confocal microscope (Leica). FIGS. 5C and 5D are western blots showing association of SNCG and ANK peptide as evidenced by co-IP of SNCG with EGFP-ANK in MCF7-SNCG and MCF7-neo cells. In these experiments, MCF7-SNCG and MCF7-neo cells were transfected with pEGFP-ANK or pEGFP plasmids. […]
To further examine the utility of the ANK peptide as a therapeutic tool against SNCG-caused drug resistance, this peptide was expressed in breast cancer cells. ANK peptide nucleotide sequences were cloned into pEGFP-C2 vector (pEGFP-ANK), and ANK peptide was expressed as a fusion protein with its amino-terminal linked to EGFP protein. […]

SNCG [4] = biological target: T2, SNCG; assay: Co-immunoprecipitation of EGFP-ANK with anti-SNCG antibody; assay type: binding; design: expressed in transfected cells; host or cells: MCF7-SNCG (MCF7 stably expressing SNCG)

T2 sequence (O76070 whole entry, the tested form may be a part): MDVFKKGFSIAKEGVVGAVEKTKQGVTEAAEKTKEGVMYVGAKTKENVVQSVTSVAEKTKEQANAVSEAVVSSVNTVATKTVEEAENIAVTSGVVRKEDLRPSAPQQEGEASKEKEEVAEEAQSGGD
T1 sequence (O76070 whole entry): as the sequence (O76070 whole entry, the tested form may be a part) above

| Compound | kd1 (GST-SNCG [1]) [s⁻¹] | kd2 (GST-SNCG [1]) [s⁻¹] | ΔH (GST-SNCG [2]) [kcal/mol] | intracellular localization relative to SNCG (SNCG [3]) | co-precipitation with SNCG in anti-SNCG IP complexes (SNCG [4]; MCF7-SNCG cells transfected with pEGFP-ANK, western blot with anti-GFP) | presence in anti-SNCG IP complexes (SNCG [4]; MCF7-neo cells (SNCG negative control)) |
| --- | --- | --- | --- | --- | --- | --- |
| CC[C@H](C)[C@H](NC(=O)[C@H](CS)NC(=O)CNC(=O)[C@H](CC(C)C)NC(=O)[C@H](Cc1c[nH]cn1)NC(=O)CNC(=O)[C@H](Cc1c[nH]cn1)NC(=O)[C@H](CCC(N)=O)NC(=O)[C@H](CO)NC(=O)[C@H](C)NC(=O)[C@@H](NC(=O)[C@H](Cc1c[nH]cn1)NC(=O)[C@H](CC(C)C)NC(=O)[C@H](C)NC(=O)[C@H](CO)NC(=O)[C@H](CC(N)=O)NC(=O)CNC(=O)[C@H](CCCCN)NC(C)=O)C(C)C)C(=O)N[C@@H](CCC(N)=O)C(=O)N[C@H](C(=O)N[C@@H](CC(C)C)C(=O)N[C@H](C(=O)N[C@@H](CCCNC(=N)N)C(=O)N[C@@H](Cc1ccc(O)cc1)C(=O)NCC(=O)N[C@@H](C)C(=O)N[C@@H](CC(N)=O)C(=O)N[C@H](C(=O)N[C@H](C(=O)N[C@@H](CCSC)C(=O)N[C@@H](CCC(N)=O)C(=O)N[C@@H](CC(N)=O)C(=O)N[C@@H](Cc1c[nH]cn1)C(=O)NCC(N)=O)[C@@H](C)O)C(C)C)C(C)C)[C@@H](C)O [ANK peptide] (Ac-KGNSALHVASQHGHLGCIQTLVRYGANVTMQNHG-NH2) | 0.014 | 0.000802 | 2.174 ± 0.2 |  |  |  |
| EGFP-ANK: ANK peptide expressed as a fusion protein with its amino-terminal linked to EGFP protein, approximately 37 kDa ({EGFP}-KGNSALHVASQHGHLGCIQTLVRYGANVTMQNHG) |  |  |  | co-localized with SNCG in the cytoplasm | co-precipitate with SNCG | not in the IP complexes |
